These results are taken from ChEMBL document CHEMBL4385604, “Identification of Pyrrolo[2,3- d]pyrimidine-Based Derivatives as Potent and Orally Effective Fms-like Tyrosine Receptor Kinase 3 (FLT3) Inhibitors for Treating Acute Myelogenous Leukemia” (J Med Chem, 2019).

Molecules are shown by their SMILES. Calls of active or inactive are those of the source. The calls are words filed in the database; no cut-off is given here.

For orientation: IC50 means the midpoint of a concentration-inhibition curve. A word on the bioavailability: it is the share of a dose that reaches the circulation, judged against a reference dose that is usually intravenous. Low values mean poor availability, high ones good availability. As usually defined, the Tmax is the time from dosing to the highest level. The term CL/F denotes the apparent clearance, not corrected for the fraction that reaches the circulation.

The test system of data set [1] is BaF3. The data set is described as follows: cells. The note with it: Mus musculus, BaF3, 72 h.
Description: Antiproliferative activity against mouse BAF3 cells harboring FLT3-ITD mutant measured after 72 hrs by MTT assay
The next data set relates to HL-60. As to the kind of experiment: Antiproliferative activity against human HL60 cells harboring wild-type FLT3 measured after 72 hrs by MTT assay. It is filed as functional, cell-based. The note with it: HL-60, 72 h. On the technique in general: Tetrazolium dyes change colour on reduction, which living cells bring about.
Data set [2] relates to MV4-11. As to the kind of experiment: cells. Conditions: Homo sapiens, MV4-11, 72 h.
Description: Antiproliferative activity against human MV4-11 cells harboring FLT3-ITD mutant measured after 72 hrs by MTT assay
Data set [3] deals with MV4-11. As to the kind of experiment: Antitumour activity against human MV4-11 cells xenografted in NOD/SCID mouse assessed as tumour growth inhibition. It is filed as functional, cell-based. (A xenograft is tissue or cells of one species grown in another, often human tumour cells in immunodeficient mice.)
Data set [4] is described as follows: Oral bioavailability in Sprague-Dawley rat at 5 mg/kg by LC-MS/MS analysis. The data set is classed as ADME, organism-based. The note with it: in vivo.
Data set [5] has as its target T1, Receptor-type tyrosine-protein kinase FLT3 (Homo sapiens, UniProt P36888).
T1 sequence (P36888 whole entry): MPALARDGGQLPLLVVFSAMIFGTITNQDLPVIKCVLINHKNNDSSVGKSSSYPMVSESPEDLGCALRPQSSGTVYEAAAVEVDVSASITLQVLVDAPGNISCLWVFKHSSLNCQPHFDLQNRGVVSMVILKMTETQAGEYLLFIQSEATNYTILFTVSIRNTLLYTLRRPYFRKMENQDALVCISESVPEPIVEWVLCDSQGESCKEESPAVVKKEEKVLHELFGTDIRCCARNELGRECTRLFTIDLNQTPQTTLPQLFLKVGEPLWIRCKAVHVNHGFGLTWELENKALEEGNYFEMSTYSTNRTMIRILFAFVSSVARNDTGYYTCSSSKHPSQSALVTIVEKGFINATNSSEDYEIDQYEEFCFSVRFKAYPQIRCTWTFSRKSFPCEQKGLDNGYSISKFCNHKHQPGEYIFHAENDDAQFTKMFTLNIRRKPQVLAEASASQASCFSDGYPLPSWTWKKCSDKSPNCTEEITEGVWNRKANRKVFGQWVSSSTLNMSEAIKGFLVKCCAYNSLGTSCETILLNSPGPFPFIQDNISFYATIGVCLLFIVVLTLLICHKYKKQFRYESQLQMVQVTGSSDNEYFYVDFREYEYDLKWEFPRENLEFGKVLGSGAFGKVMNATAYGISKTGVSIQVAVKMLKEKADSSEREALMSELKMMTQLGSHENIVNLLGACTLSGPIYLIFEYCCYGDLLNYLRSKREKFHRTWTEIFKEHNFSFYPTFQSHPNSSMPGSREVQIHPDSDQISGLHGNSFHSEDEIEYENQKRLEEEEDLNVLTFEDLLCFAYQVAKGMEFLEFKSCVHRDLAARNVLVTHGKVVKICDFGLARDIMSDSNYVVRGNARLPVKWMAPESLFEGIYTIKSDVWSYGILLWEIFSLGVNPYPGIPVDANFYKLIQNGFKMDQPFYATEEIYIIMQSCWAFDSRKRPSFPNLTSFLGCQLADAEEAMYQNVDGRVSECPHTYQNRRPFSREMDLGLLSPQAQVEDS

A short description of data set [6]: Tmax in Sprague-Dawley rat at 5 mg/kg, po by LC-MS/MS analysis. The data set is classed as ADME, organism-based. The note with it: in vivo.
Data set [7] deals with MOLM-13. As to the kind of experiment: Antitumour activity against human MOLM13 cells xenografted in NOD/SCID mouse assessed as tumour growth inhibition. The data set is classed as functional, cell-based.
Data set [8] can be described thus: Plasma clearance in Sprague-Dawley rat at 5 mg/kg, po by LC-MS/MS analysis. The data set is classed as ADME, organism-based.
Data set [9] has as its system BaF3. The data set is described as follows: cells. The note with it: Mus musculus, BaF3, 72 h. The source holds these as a separate data set.
Description: Antiproliferative activity against mouse BAF3 cells harboring FLT3-ITD-F691L mutant measured after 72 hrs by MTT assay
In data set [10] the test system is MOLM-13. The data set is described as follows: cells. Conditions: Homo sapiens, MOLM-13, 72 h.
Description: Antiproliferative activity against human MOLM13 cells harboring FLT3-ITD mutant measured after 72 hrs by MTT assay
Data set [11] in a line: Elimination half-life in Sprague-Dawley rat at 5 mg/kg, po by LC-MS/MS analysis. The data set is classed as ADME, organism-based. Conditions: in vivo, read-out: beta t1/2 (converted).
Another data set has as its system RS4-11. As to the kind of experiment: Antiproliferative activity against human RS4:11 cells harboring wild-type FLT3 measured after 72 hrs by MTT assay. It is filed as functional, cell-based. The note with it: RS4-11, 72 h.
The subject of data set [12] is MOLM-13. As to the kind of experiment: Potency index, ratio of quizartinib IC50 to test compound IC50 for human MOLM13 cells harboring FLT3-ITD mutant. The data set is classed as functional.
Data set [13] deals with BaF3. The data set is described as follows: cells. Conditions: Mus musculus, BaF3, 72 h. The source holds these as a separate data set.
Description: Antiproliferative activity against mouse BAF3 cells harboring FLT3-ITD-D835V mutant measured after 72 hrs by MTT assay

For the compound `CC(C)(C)c1cc(NC(=O)Nc2ccc(-c3c[nH]c4ncnc(N)c34)cc2)no1`, the IC50 in the data set on BaF3 [1] is 0.16 nM; in the data set with HL-60, above 1000 nM; in the data set with MV4-11 [2] it was 0.043 nM; in data set [5], 6 nM; in the data set on BaF3 [9], 2.35 nM; in the data set on MOLM-13 [10] it was below 0.001 nM. In addition, the IC50 was above 1000 nM in the data set on RS4-11 and 4.83 nM in the data set on BaF3 [13]. For the same compound, the TGI entry in the data set on MV4-11 [3] and with MOLM-13 [7] was “inactive” each time. For the same compound, the bioavailability in data set [4] was 22.5%. In data set [6], the Tmax came out at 0.28 h. The apparent clearance CL/F in data set [8] is 14.8 mL/min/kg. Besides, the half-life in [11] is 6.22 h. In the data set on MOLM-13 [12], the “Ratio IC50” value is recorded as above 100.
